Measured values from the NIST ThermoML archive (doi:10.1021/je060271a).
Several values for one entry are separate records, joined by “and”; a condition that tells them apart may be missing. Equal values may be shown once.

Settings: 343.15 K, Liquid, Vibrating tube method

CCCCCC(=O)OCC(COC(=O)CCCCC)(COC(=O)CCCCC)COC(=O)CCCCC [pentaerythritol tetrahexanoate]
Settings	mass density
242.7 kPa	957.2 kg/m3
242.9 kPa	957.3 kg/m3
243.1 kPa	957.3 kg/m3
243.2 kPa	957.3 kg/m3 and 957.2 kg/m3
243.6 kPa	957.2 kg/m3
243.9 kPa	957.3 kg/m3 and 957.1 kg/m3
244.3 kPa	957.3 kg/m3
244.5 kPa	957.2 kg/m3 and 957.3 kg/m3
244.8 kPa	957.3 kg/m3
245 kPa	957.2 kg/m3 and 957.4 kg/m3
245.3 kPa	957.3 kg/m3 and 957.2 kg/m3
245.5 kPa	957.2 kg/m3
245.7 kPa	957.2 kg/m3
245.9 kPa	957.3 kg/m3
246.2 kPa	957.4 kg/m3
246.4 kPa	957.3 kg/m3
246.6 kPa	957.3 kg/m3
249 kPa	957.2 kg/m3
249.5 kPa	957.2 kg/m3
249.9 kPa	957.4 kg/m3
250 kPa	957.2 kg/m3
250.2 kPa	957.1 kg/m3
251.6 kPa	957.3 kg/m3
251.8 kPa	957.3 kg/m3 and 957.2 kg/m3
251.9 kPa	957.3 kg/m3
252.3 kPa	957.3 kg/m3 and 957.2 kg/m3
252.6 kPa	957.1 kg/m3
252.8 kPa	957.2 kg/m3
253.2 kPa	957.2 kg/m3
253.3 kPa	957.3 kg/m3 and 957.2 kg/m3 and 957.4 kg/m3
253.7 kPa	957.2 kg/m3
254 kPa	957.2 kg/m3
254.4 kPa	957.2 kg/m3
254.9 kPa	957.3 kg/m3
255.1 kPa	957.2 kg/m3 and 957.3 kg/m3
255.4 kPa	957.3 kg/m3
255.6 kPa	957.4 kg/m3
256.3 kPa	957.3 kg/m3
256.5 kPa	957.1 kg/m3
256.6 kPa	957.2 kg/m3
256.8 kPa	957.2 kg/m3
257 kPa	957.2 kg/m3
257.3 kPa	957.3 kg/m3
257.5 kPa	957.2 kg/m3
257.7 kPa	957.3 kg/m3
257.9 kPa	957.3 kg/m3
258.2 kPa	957.2 kg/m3
259.2 kPa	957.2 kg/m3
259.6 kPa	957.4 kg/m3
259.9 kPa	957.3 kg/m3
260.1 kPa	957.3 kg/m3
260.4 kPa	957.3 kg/m3
260.6 kPa	957.3 kg/m3
261 kPa	957.3 kg/m3 and 957.2 kg/m3
261.3 kPa	957.2 kg/m3
261.5 kPa	957.2 kg/m3
261.7 kPa	957.2 kg/m3
261.8 kPa	957.3 kg/m3
262.2 kPa	957.3 kg/m3
262.5 kPa	957.4 kg/m3
262.9 kPa	957.4 kg/m3 and 957.2 kg/m3
263 kPa	957.2 kg/m3
263.4 kPa	957.1 kg/m3 and 957.4 kg/m3 and 957.3 kg/m3
263.7 kPa	957.4 kg/m3 and 957.3 kg/m3
266.9 kPa	957.4 kg/m3
270.7 kPa	957.2 kg/m3
271.2 kPa	957.3 kg/m3
273.5 kPa	957.3 kg/m3
273.6 kPa	957.4 kg/m3
274 kPa	957.3 kg/m3
274.3 kPa	957.3 kg/m3
275.2 kPa	957.3 kg/m3
275.6 kPa	957.4 kg/m3
275.7 kPa	957.4 kg/m3
275.9 kPa	957.2 kg/m3
276.1 kPa	957.4 kg/m3
276.4 kPa	957.2 kg/m3
276.6 kPa	957.4 kg/m3
276.9 kPa	957.3 kg/m3
277.3 kPa	957.3 kg/m3
277.6 kPa	957.3 kg/m3
278 kPa	957.3 kg/m3
278.2 kPa	957.2 kg/m3
278.3 kPa	957.2 kg/m3
278.7 kPa	957.3 kg/m3
279 kPa	957.3 kg/m3
279.2 kPa	957.3 kg/m3
279.4 kPa	957.2 kg/m3
279.6 kPa	957.2 kg/m3
285.3 kPa	957.4 kg/m3
285.6 kPa	957.4 kg/m3 and 957.2 kg/m3
286.1 kPa	957.3 kg/m3
286.3 kPa	957.3 kg/m3
286.5 kPa	957.3 kg/m3
286.7 kPa	957.3 kg/m3
287 kPa	957.4 kg/m3
287.2 kPa	957.1 kg/m3
287.4 kPa	957.3 kg/m3
287.5 kPa	957.2 kg/m3
287.9 kPa	957.3 kg/m3
288.2 kPa	957.2 kg/m3
288.6 kPa	957.3 kg/m3
288.7 kPa	957.2 kg/m3
288.9 kPa	957.3 kg/m3
289.1 kPa	957.3 kg/m3
289.4 kPa	957.2 kg/m3
289.8 kPa	957.2 kg/m3 and 957.3 kg/m3
291.2 kPa	957.3 kg/m3
291.4 kPa	957.3 kg/m3
291.5 kPa	957.4 kg/m3 and 957.2 kg/m3
291.9 kPa	957.4 kg/m3
292.2 kPa	957.3 kg/m3
292.4 kPa	957.3 kg/m3 and 957.4 kg/m3
292.7 kPa	957.4 kg/m3
293.1 kPa	957.3 kg/m3
293.4 kPa	957.3 kg/m3
293.6 kPa	957.3 kg/m3
294.6 kPa	957.3 kg/m3
294.7 kPa	957.3 kg/m3
296.4 kPa	957.4 kg/m3 and 957.3 kg/m3
296.6 kPa	957.3 kg/m3
297.1 kPa	957.3 kg/m3
297.3 kPa	957.3 kg/m3
297.6 kPa	957.4 kg/m3
298 kPa	957.4 kg/m3 and 957.3 kg/m3 and 957.2 kg/m3
298.5 kPa	957.3 kg/m3
298.8 kPa	957.4 kg/m3
299 kPa	957.2 kg/m3
299.9 kPa	957.3 kg/m3
305.4 kPa	957.4 kg/m3
305.8 kPa	957.2 kg/m3
306 kPa	957.3 kg/m3
306.3 kPa	957.4 kg/m3
306.8 kPa	957.4 kg/m3 and 957.3 kg/m3
307.5 kPa	957.3 kg/m3
307.9 kPa	957.3 kg/m3
308.2 kPa	957.3 kg/m3
308.4 kPa	957.2 kg/m3
308.7 kPa	957.5 kg/m3 and 957.3 kg/m3
309.1 kPa	957.3 kg/m3
309.3 kPa	957.3 kg/m3
309.4 kPa	957.4 kg/m3
309.8 kPa	957.1 kg/m3
310.6 kPa	957.3 kg/m3
311.2 kPa	957.3 kg/m3
311.7 kPa	957.4 kg/m3
311.9 kPa	957.5 kg/m3
312 kPa	957.2 kg/m3
312.2 kPa	957.3 kg/m3
312.5 kPa	957.3 kg/m3
315 kPa	957.3 kg/m3
315.7 kPa	957.4 kg/m3
316 kPa	957.4 kg/m3
316.5 kPa	957.4 kg/m3
316.6 kPa	957.4 kg/m3
316.7 kPa	957.4 kg/m3
318.5 kPa	957.4 kg/m3
318.8 kPa	957.3 kg/m3
319.3 kPa	957.3 kg/m3 and 957.2 kg/m3 and 957.4 kg/m3
319.7 kPa	957.3 kg/m3
319.9 kPa	957.3 kg/m3
320.4 kPa	957.2 kg/m3
320.7 kPa	957.3 kg/m3
321.2 kPa	957.3 kg/m3
322.1 kPa	957.1 kg/m3
322.5 kPa	957.3 kg/m3
322.8 kPa	957.3 kg/m3
323.1 kPa	957.3 kg/m3
323.2 kPa	957.4 kg/m3
323.3 kPa	957.2 kg/m3
323.7 kPa	957.4 kg/m3
323.9 kPa	957.3 kg/m3
324 kPa	957.3 kg/m3
324.2 kPa	957.3 kg/m3
324.5 kPa	957.3 kg/m3
324.7 kPa	957.3 kg/m3
325.1 kPa	957.3 kg/m3
325.2 kPa	957.3 kg/m3
325.9 kPa	957.3 kg/m3
326.3 kPa	957.3 kg/m3
326.4 kPa	957.4 kg/m3
326.6 kPa	957.3 kg/m3
327 kPa	957.2 kg/m3
327.1 kPa	957.3 kg/m3
327.5 kPa	957.4 kg/m3
327.7 kPa	957.2 kg/m3
328 kPa	957.4 kg/m3
333.2 kPa	957.4 kg/m3
333.4 kPa	957.3 kg/m3
333.7 kPa	957.2 kg/m3
333.9 kPa	957.3 kg/m3
334.3 kPa	957.2 kg/m3
334.6 kPa	957.3 kg/m3
334.8 kPa	957.3 kg/m3
335.1 kPa	957.4 kg/m3
335.5 kPa	957.3 kg/m3
336.2 kPa	957.3 kg/m3
336.5 kPa	957.3 kg/m3
336.9 kPa	957.4 kg/m3
338.1 kPa	957.3 kg/m3
338.6 kPa	957.3 kg/m3
339.1 kPa	957.3 kg/m3 and 957.2 kg/m3
339.5 kPa	957.3 kg/m3
339.8 kPa	957.3 kg/m3
340.2 kPa	957.3 kg/m3
340.5 kPa	957.3 kg/m3
340.9 kPa	957.5 kg/m3
341.6 kPa	957.4 kg/m3 and 957.2 kg/m3
341.9 kPa	957.4 kg/m3
342.1 kPa	957.4 kg/m3
342.8 kPa	957.2 kg/m3 and 957.3 kg/m3
343.1 kPa	957.3 kg/m3
343.5 kPa	957.3 kg/m3
343.6 kPa	957.4 kg/m3
344.2 kPa	957.4 kg/m3
344.3 kPa	957.3 kg/m3
345.9 kPa	957.3 kg/m3
346.4 kPa	957.4 kg/m3
346.8 kPa	957.3 kg/m3
347.3 kPa	957.4 kg/m3
348 kPa	957.3 kg/m3
348.3 kPa	957.2 kg/m3
351.8 kPa	957.3 kg/m3
352.2 kPa	957.2 kg/m3
352.7 kPa	957.4 kg/m3
352.9 kPa	957.2 kg/m3
353 kPa	957.3 kg/m3
358.8 kPa	957.4 kg/m3
359.3 kPa	957.3 kg/m3
359.6 kPa	957.4 kg/m3
363.3 kPa	957.4 kg/m3
363.6 kPa	957.3 kg/m3
364 kPa	957.4 kg/m3
364.5 kPa	957.4 kg/m3
364.7 kPa	957.4 kg/m3
365 kPa	957.4 kg/m3
365.4 kPa	957.4 kg/m3
368.8 kPa	957.3 kg/m3
369.2 kPa	957.3 kg/m3
369.7 kPa	957.3 kg/m3
370.1 kPa	957.4 kg/m3
372.8 kPa	957.3 kg/m3
373.2 kPa	957.4 kg/m3
373.7 kPa	957.4 kg/m3
374.1 kPa	957.5 kg/m3 and 957.4 kg/m3
374.7 kPa	957.3 kg/m3
374.8 kPa	957.3 kg/m3
375.5 kPa	957.3 kg/m3
375.8 kPa	957.2 kg/m3
376 kPa	957.3 kg/m3
376.5 kPa	957.4 kg/m3
376.8 kPa	957.4 kg/m3
377.4 kPa	957.3 kg/m3
377.5 kPa	957.4 kg/m3
378.1 kPa	957.4 kg/m3
378.6 kPa	957.4 kg/m3
379.1 kPa	957.3 kg/m3
380.5 kPa	957.4 kg/m3
380.8 kPa	957.5 kg/m3
381.2 kPa	957.5 kg/m3
381.5 kPa	957.5 kg/m3
382.1 kPa	957.3 kg/m3
382.7 kPa	957.3 kg/m3
382.9 kPa	957.4 kg/m3
383.6 kPa	957.4 kg/m3
383.8 kPa	957.4 kg/m3
384.3 kPa	957.4 kg/m3
384.5 kPa	957.4 kg/m3
384.8 kPa	957.5 kg/m3
385.5 kPa	957.4 kg/m3 and 957.5 kg/m3
385.9 kPa	957.4 kg/m3
386.7 kPa	957.5 kg/m3
390.6 kPa	957.4 kg/m3
390.9 kPa	957.4 kg/m3
391.4 kPa	957.3 kg/m3
391.8 kPa	957.5 kg/m3
392 kPa	957.3 kg/m3
392.8 kPa	957.4 kg/m3
393.2 kPa	957.4 kg/m3
393.7 kPa	957.4 kg/m3
394 kPa	957.4 kg/m3
394.9 kPa	957.3 kg/m3
395.1 kPa	957.5 kg/m3
395.4 kPa	957.3 kg/m3
395.8 kPa	957.3 kg/m3
396.3 kPa	957.4 kg/m3
396.8 kPa	957.4 kg/m3
397.2 kPa	957.4 kg/m3
397.7 kPa	957.5 kg/m3
397.9 kPa	957.4 kg/m3
